Data as given in ChEMBL document CHEMBL1145713, “Cyclic peptides from higher plants. 34. Segetalins G and H, structures and estrogen-like activity of cyclic pentapeptides from Vaccaria segetalis” (1997).
Peptide text beside a SMILES is read from it.

These compounds were tested on Rattus norvegicus (assay: Estrogen-like activity in ovariectomized SD rat assessed as increase in uterus weight at 2.5 mg/kg, sc administered daily for 14 days). Conditions: route subcutaneous.
Type: functional

CC(C)[C@@H]1NC(=O)[C@@H]2CCCN2C(=O)[C@H](C(C)C)NC(=O)CNC(=O)[C@H](C)NC(=O)[C@H](Cc2c[nH]c3ccccc23)NC1=O [SEGETALIN A] (cyclo(AGVPVW)) was tested. Which Activity did it give?
The Activity was 54.4 mg.

For CC(C)[C@@H]1NC(=O)CNC(=O)[C@H](C)NC(=O)[C@H](Cc2c[nH]c3ccccc23)NC(=O)[C@H](C)NC1=O [SEGETALIN B] (cyclo(AGVAW)), which Activity is on record?
Its Activity is 56.3 mg.

How did the Activity turn out when CC(C)[C@@H]1NC(=O)CNC(=O)[C@H](C)NC(=O)[C@H](Cc2ccc(O)cc2)NC(=O)[C@H](CCCCN)NC1=O [SEGETALIN G] (cyclo(AGVKY)) was run?
The Activity was 51.2 mg.

How did the Activity turn out when N=C(N)NCCC[C@@H]1NC(=O)[C@H](Cc2ccc(O)cc2)NC(=O)CNC(=O)[C@H](CO)NC(=O)[C@H](Cc2ccccc2)NC1=O [SEGETALIN H] (cyclo(FSGYR)) was run?
Its Activity is 54.8 mg.
